Measured values from patent publication US11312719B2, “9-substituted amino triazolo quinazoline derivatives as adenosine receptor antagonists, pharmaceutical compositions and their use” (Merck Sharp & Dohme Corp., priority 2018, dated 2022).

Columns and labels:
human A2A receptors = human A2A receptors (Homo sapiens (Human), UniProt P29274); test: A2A antagonism in cAMP cell-based assay (LANCE cAMP, HEK293); settings: HEK293 cells expressing human A2A receptor
Procedure, shortened: (§1)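 HEK293 cells expressing human A2A or A2B, in HBSS/5 mM HEPES/200 nM rolipram, were preincubated with compound (0.5–10,000 nM, 0.25% DMSO) 30 min at 37° C. Adenosine was then added from 300 nM (A2A) or 600 nM (A2B) solution for 30 min.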

human A2B receptors = human A2B receptors (Homo sapiens (Human), UniProt P29275); test: A2B antagonism in cAMP cell-based assay (LANCE cAMP, HEK293); settings: HEK293 cells expressing human A2B receptor; for A2B cAMP % Inh. @10000 nM: at 10000 nM
Procedure, shortened: as §1

Sequence of human A2A receptors (P29274 whole entry): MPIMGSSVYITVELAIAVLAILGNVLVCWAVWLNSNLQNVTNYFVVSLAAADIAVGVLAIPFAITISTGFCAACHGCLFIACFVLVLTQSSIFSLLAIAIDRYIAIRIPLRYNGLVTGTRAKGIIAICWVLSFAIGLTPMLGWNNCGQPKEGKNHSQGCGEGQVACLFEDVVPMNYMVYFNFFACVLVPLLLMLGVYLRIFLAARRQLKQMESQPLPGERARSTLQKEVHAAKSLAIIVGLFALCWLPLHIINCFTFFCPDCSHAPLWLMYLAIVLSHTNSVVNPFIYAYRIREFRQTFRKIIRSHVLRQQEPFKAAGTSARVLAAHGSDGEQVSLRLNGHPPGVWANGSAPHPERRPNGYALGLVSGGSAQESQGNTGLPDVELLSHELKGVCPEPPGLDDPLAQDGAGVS
Sequence of human A2B receptors (P29275 whole entry): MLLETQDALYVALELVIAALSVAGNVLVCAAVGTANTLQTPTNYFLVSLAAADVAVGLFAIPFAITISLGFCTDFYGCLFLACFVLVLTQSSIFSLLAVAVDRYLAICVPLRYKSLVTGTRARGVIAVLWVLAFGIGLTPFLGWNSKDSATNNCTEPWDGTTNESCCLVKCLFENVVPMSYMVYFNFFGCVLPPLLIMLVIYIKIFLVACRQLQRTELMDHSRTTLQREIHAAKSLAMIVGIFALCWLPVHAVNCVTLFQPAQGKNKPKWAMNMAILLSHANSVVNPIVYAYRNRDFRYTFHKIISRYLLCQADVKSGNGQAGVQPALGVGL

SMILES	IC50 (human A2A receptors)	IC50 (human A2B receptors)	A2B cAMP % Inh. @10000 nM (human A2B receptors)
COc1cc2nc(N)n3nc([C@H]4C[C@@H](C)CN(c5cn([C@@H](C)[C@H](C)O)nc5C)C4)nc3c2cc1F (single isomer, unassigned) [Example 211, (2S,3S or 2R,3R)-3-(4-((3S,5R or 3R,5S)-3-(5-amino-9-fluoro-8-methoxy-[1,2,4]triazolo[1,5-c]quinazolin-2-yl)-5-methylpiperidin-1-yl)-3-methyl-1H-pyrazol-1-yl)butan-2-ol]	89.3 nM	> 10000 nM	–
Cc1nn(C(C)C(C)O)cc1N1CC(C)CC(c2nc3c4cc(F)cc(F)c4nc(N)n3n2)C1 (single isomer, unassigned) [Example 212, (2S,3S or 2R,3R)-3-(4-((3R,5S or 3S,5R)-3-(5-amino-7,9-difluoro-[1,2,4]triazolo[1,5-c]quinazolin-2-yl)-5-methylpiperidin-1-yl)-3-methyl-1H-pyrazol-1-yl)butan-2-ol]	122 nM	–	27% Inh.
Cc1nn(C(C)C(C)O)cc1N1CC(C)CC(c2nc3c4cc(F)cc(F)c4nc(N)n3n2)C1 (single isomer, unassigned) [Example 213, (2R,3R or 2S,3S)-3-(4-((3R,5S or 3S,5R)-3-(5-amino-7,9-difluoro-[1,2,4]triazolo[1,5-c]quinazolin-2-yl)-5-methylpiperidin-1-yl)-3-methyl-1H-pyrazol-1-yl)butan-2-ol]	331 nM	> 10000 nM	–
Cc1nn(C(C)C(C)O)cc1N1CC(C)CC(c2nc3c4cc(F)cc(F)c4nc(N)n3n2)C1 (single isomer, unassigned) [Example 214, (2R,3R or 2S,3S)-3-(4-((3S,5R or 3R,5S)-3-(5-amino-7,9-difluoro-[1,2,4]triazolo[1,5-c]quinazolin-2-yl)-5-methylpiperidin-1-yl)-3-methyl-1H-pyrazol-1-yl)butan-2-ol]	0.5 nM	34.1 nM	–
Cc1nn(C(C)C(C)O)cc1N1CC(C)CC(c2nc3c4cc(F)cc(F)c4nc(N)n3n2)C1 (single isomer, unassigned) [Example 215, (2S,3S or 2R,3R)-3-(4-((3S,5R or 3R,5S)-3-(5-amino-7,9-difluoro-[1,2,4]triazolo[1,5-c]quinazolin-2-yl)-5-methylpiperidin-1-yl)-3-methyl-1H-pyrazol-1-yl)butan-2-ol]	0.4 nM	27.5 nM	–
Cc1c(N2CC(C)CC(c3nc4c5cc(F)cc(F)c5nc(N)n4n3)C2)cnn1C(C)C(C)O (single isomer, unassigned) [Example 216, (2S,3S or 2R,3R)-3-(4-((3R,5S or 3S,5R)-3-(5-amino-7,9-difluoro-[1,2,4]triazolo[1,5-c]quinazolin-2-yl)-5-methylpiperidin-1-yl)-5-methyl-1H-pyrazol-1-yl)butan-2-ol]	1 nM	160 nM	–
Cc1c(N2CC(C)CC(c3nc4c5cc(F)cc(F)c5nc(N)n4n3)C2)cnn1C(C)C(C)O (single isomer, unassigned) [Example 217, (2R,3R or 2S,3S)-3-(4-((3R,5S or 3S,5R)-3-(5-amino-7,9-difluoro-[1,2,4]triazolo[1,5-c]quinazolin-2-yl)-5-methylpiperidin-1-yl)-5-methyl-1H-pyrazol-1-yl)butan-2-ol]	1.1 nM	161 nM	–
Cc1c(N2CC(C)CC(c3nc4c5cc(F)cc(F)c5nc(N)n4n3)C2)cnn1C(C)C(C)O (single isomer, unassigned) [Example 218, (2R,3R or 2S,3S)-3-(4-((3S,5R or 3R,5S)-3-(5-amino-7,9-difluoro-[1,2,4]triazolo[1,5-c]quinazolin-2-yl)-5-methylpiperidin-1-yl)-5-methyl-1H-pyrazol-1-yl)butan-2-ol]	236 nM	5780 nM	–
Cc1c(N2CC(C)CC(c3nc4c5cc(F)cc(F)c5nc(N)n4n3)C2)cnn1C(C)C(C)O (single isomer, unassigned) [Example 219, (2S,3S or 2R,3R)-3-(4-((3S,5R or 3R,5S)-3-(5-amino-7,9-difluoro-[1,2,4]triazolo[1,5-c]quinazolin-2-yl)-5-methylpiperidin-1-yl)-5-methyl-1H-pyrazol-1-yl)butan-2-ol]	247 nM	–	27% Inh.
COc1cc(F)cc2c1nc(N)n1nc(C3CC(C)CN(c4cnn(C(C)C(C)O)c4C)C3)nc21 (single isomer, unassigned) [Example 220, (2S,3S or 2R,3R)-3-(4-((3R,5S or 3S,5R)-3-(5-amino-9-fluoro-7-methoxy-[1,2,4]triazolo[1,5-c]quinazolin-2-yl)-5-methylpiperidin-1-yl)-5-methyl-1H-pyrazol-1-yl)butan-2-ol]	20.4 nM	–	30% Inh.
COc1cc(F)cc2c1nc(N)n1nc(C3CC(C)CN(c4cnn(C(C)C(C)O)c4C)C3)nc21 (single isomer, unassigned) [Example 221, (2R,3R or 2S,3S)-3-(4-((3R,5S or 3S,5R)-3-(5-amino-9-fluoro-7-methoxy-[1,2,4]triazolo[1,5-c]quinazolin-2-yl)-5-methylpiperidin-1-yl)-5-methyl-1H-pyrazol-1-yl)butan-2-ol]	0.5 nM	63 nM	–
COc1cc(F)cc2c1nc(N)n1nc(C3CC(C)CN(c4cnn(C(C)C(C)O)c4C)C3)nc21 (single isomer, unassigned) [Example 222, (2R,3R or 2S,3S)-3-(4-((3S,5R or 3R,5S)-3-(5-amino-9-fluoro-7-methoxy-[1,2,4]triazolo[1,5-c]quinazolin-2-yl)-5-methylpiperidin-1-yl)-5-methyl-1H-pyrazol-1-yl)butan-2-ol]	34.6 nM	3280 nM	–

Next, values leading:

IC50 (human A2A receptors)	IC50 (human A2B receptors)	A2B cAMP % Inh. @10000 nM (human A2B receptors)	SMILES
0.7 nM	46 nM	–	COc1cc(F)cc2c1nc(N)n1nc(C3CC(C)CN(c4cnn(C(C)C(C)O)c4C)C3)nc21 (single isomer, unassigned) [Example 223, (2S,3S or 2R,3R)-3-(4-((3S,5R or 3R,5S)-3-(5-amino-9-fluoro-7-methoxy-[1,2,4]triazolo[1,5-c]quinazolin-2-yl)-5-methylpiperidin-1-yl)-5-methyl-1H-pyrazol-1-yl)butan-2-ol]
0.8 nM	16.1 nM	–	COc1cc2nc(N)n3nc([C@@H]4CC[C@H](C)N(c5cnn([C@@H](C)[C@H](C)O)c5)C4)nc3c2cc1F (single isomer, unassigned) [Example 228, (2S,3S or 2R,3R)-3-(4-((2S,5R or 2R,5S)-5-(5-amino-9-fluoro-8-methoxy-[1,2,4]triazolo[1,5-c]quinazolin-2-yl)-2-methylpiperidin-1-yl)-1H-pyrazol-1-yl)butan-2-ol]
1 nM	6.6 nM	–	COc1cc2nc(N)n3nc([C@H]4CC[C@@H](C)N(c5cnn([C@@H](C)[C@H](C)O)c5)C4)nc3c2cc1F (single isomer, unassigned) [Example 229, (2S,3S or 2R,3R)-3-(4-((2R,5S or 2S,5R)-5-(5-amino-9-fluoro-8-methoxy-[1,2,4]triazolo[1,5-c]quinazolin-2-yl)-2-methylpiperidin-1-yl)-1H-pyrazol-1-yl)butan-2-ol]
32.9 nM	724 nM	–	COc1cc2nc(N)n3nc([C@H]4CC[C@@H](C)N(c5cnn([C@H](C)[C@@H](C)O)c5)C4)nc3c2cc1F (single isomer, unassigned) [Example 230, (2R,3R or 2S,3S)-3-(4-((2R,5S or 2S,5R)-5-(5-amino-9-fluoro-8-methoxy-[1,2,4]triazolo[1,5-c]quinazolin-2-yl)-2-methylpiperidin-1-yl)-1H-pyrazol-1-yl)butan-2-ol]
122 nM	3840 nM	–	COc1cc2nc(N)n3nc([C@@H]4CC[C@H](C)N(c5cnn([C@H](C)[C@@H](C)O)c5)C4)nc3c2cc1F (single isomer, unassigned) [Example 231, (2R,3R or 2S,3S)-3-(4-((2S,5R or 2R,5S)-5-(5-amino-9-fluoro-8-methoxy-[1,2,4]triazolo[1,5-c]quinazolin-2-yl)-2-methylpiperidin-1-yl)-1H-pyrazol-1-yl)butan-2-ol]
1.3 nM	12.7 nM	–	CC(O)C(C)n1cc(N2CC(c3nc4c5cc(F)cc(F)c5nc(N)n4n3)CCC2C)cn1 (single isomer, unassigned) [Example 232, (2S,3S or 2R,3R)-3-(4-((2S,5R or 2R,5S)-5-(5-amino-7,9-difluoro-[1,2,4]triazolo[1,5-c]quinazolin-2-yl)-2-methylpiperidin-1-yl)-1H-pyrazol-1-yl)butan-2-ol]
0.7 nM	5.6 nM	–	CC(O)C(C)n1cc(N2CC(c3nc4c5cc(F)cc(F)c5nc(N)n4n3)CCC2C)cn1 (single isomer, unassigned) [Example 233, (2R,3R or 2S,3S)-3-(4-((2S,5R or 2R,5S)-5-(5-amino-7,9-difluoro-[1,2,4]triazolo[1,5-c]quinazolin-2-yl)-2-methylpiperidin-1-yl)-1H-pyrazol-1-yl)butan-2-ol]
46.8 nM	1200 nM	–	CC(O)C(C)n1cc(N2CC(c3nc4c5cc(F)cc(F)c5nc(N)n4n3)CCC2C)cn1 (single isomer, unassigned) [Example 234, (2R,3R or 2S,3S)-3-(4-((2R,5S or 2S,5R)-5-(5-amino-7,9-difluoro-[1,2,4]triazolo[1,5-c]quinazolin-2-yl)-2-methylpiperidin-1-yl)-1H-pyrazol-1-yl)butan-2-ol]
439 nM	4450 nM	–	CC(O)C(C)n1cc(N2CC(c3nc4c5cc(F)cc(F)c5nc(N)n4n3)CCC2C)cn1 (single isomer, unassigned) [Example 235, (2S,3S or 2R,3R)-3-(4-((2R,5S or 2S,5R)-5-(5-amino-7,9-difluoro-[1,2,4]triazolo[1,5-c]quinazolin-2-yl)-2-methylpiperidin-1-yl)-1H-pyrazol-1-yl)butan-2-ol]
